Laboratory results taken from PubChem BioAssay (NCI).
Several values for one entry are separate records, joined by “and”; a condition that tells them apart may be missing. Equal values may be shown once.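 A five-concentration, 48-hour dose response in 96-well plates underlies each endpoint, interpolated linearly between surrounding concentrations. GI50 marks 50% less growth. TGI is the concentration that stops growth completely.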

Assays:
Test in all cases: growth of human tumour cells (NCI), 48 h
[1] = test system: A549 NSCLC
[2] = test system: CCRF-CEM leukemia
[3] = test system: HL-60(TB) leukemia
[4] = test system: KM12 colon
[5] = test system: M14 melanoma
[6] = test system: SNB-75 CNS
[7] = test system: T-47D breast
[8] = test system: U251 CNS
[9] = test system: UO-31 renal
[10] = test system: MALME-3M melanoma

| Structure (SMILES) | TGI [1] | TGI [2] | TGI [3] | TGI [4] | TGI [5] | TGI [6] | TGI [7] | TGI [8] | TGI [9] | GI50 [1] | GI50 [2] | GI50 [3] | GI50 [4] | GI50 [5] | GI50 [10] | TGI [10] | GI50 [6] | GI50 [7] | GI50 [8] | GI50 [9] |
| --- | --- | --- | --- | --- | --- | --- | --- | --- | --- | --- | --- | --- | --- | --- | --- | --- | --- | --- | --- | --- |
| COc1cc(=O)oc(/C=C/C=C/C=C/C(C)=C\C2(C)OC(C)C(C)(O)C2O)c1C (stereo not given) | > 100 µM | > 100 µM | > 100 µM | > 100 µM | > 100 µM | > 100 µM | > 100 µM | > 100 µM | > 100 µM | – | – | – | – | – | – | – | – | – | – | – |
| COC(=O)[C@H](Cc1cn(C)cn1)NC(=O)[C@@H](NC(=O)Nc1cc(C(F)(F)F)cc(C(F)(F)F)c1)C(C)(C)C | > 10 µM | > 10 µM | > 10 µM | > 10 µM | > 10 µM | > 10 µM | > 10 µM | > 10 µM | > 10 µM | > 10 µM | > 10 µM | > 10 µM | > 10 µM | > 10 µM | > 10 µM | > 10 µM | > 10 µM | > 10 µM | > 10 µM | > 10 µM |
| O=C1CCC(N2C(=O)c3cccc(NCCOCCOCCNC(=O)c4cc5c(o4)C(=O)c4ccccc4C5=O)c3C2=O)C(=O)N1 (stereo not given) | 4.91 µM | 28.9 µM | 6.82 µM | 10.9 µM | 2.6 µM | 4.16 µM | 8.05 µM | 3.25 µM | 12.6 µM | 2.18 µM | 3.45 µM | 2.1 µM | 3.19 µM | 1.2 µM | 0.184 µM | 0.448 µM | 2.47 µM | 2.46 µM | 1.72 µM | 3.51 µM |
| NC(Cc1c[nH]c2cc(F)ccc12)C(=O)O (stereo not given) | > 2500 µM | > 2500 µM | > 2500 µM | > 2500 µM | > 2500 µM | > 2500 µM | > 2500 µM | > 2500 µM | > 2500 µM | 1150 µM | 1240 µM | 951 µM | 1180 µM | 951 µM | 859 µM | 2320 µM | 1940 µM | > 2500 µM | 872 µM | – |
| COCC(=O)NC/C=C/c1ccc2ncnc(Nc3ccc(Oc4ccc(C)nc4)c(C)c3)c2c1 | > 100 µM | > 79.9 µM | 59 µM | 53 µM | 31 µM | 27.2 µM | 13.6 µM | 31.9 µM | 35.9 µM | 13.8 µM | 14 µM | 21.9 µM | 18.7 µM | 11.4 µM | 14.4 µM | 35.4 µM | 12.5 µM | 1.19 µM | 13.2 µM | 7.8 µM |
| N#CC(C(=O)O)C(c1c(Cl)cccc1Cl)C(C#N)C(=O)O (stereo not given) | > 100 µM | – | > 100 µM | > 100 µM | > 100 µM | – | > 100 µM | > 100 µM | > 100 µM | – | – | – | – | – | – | > 100 µM | – | – | – | – |
| O=C1c2ccccc2-c2c1c1ccc([N+](=O)[O-])cc1c(=O)n2CCCn1ccnc1 | 21.9 µM | 0.785 µM | 3.84 µM | 1.25 µM | 0.453 µM | 0.862 µM | > 33.3 µM | 0.69 µM | 2.62 µM | 3.17 µM | – | 1.09 µM | 0.0227 µM | 0.106 µM | 0.148 µM | 1.97 µM | – | – | 0.157 µM | 0.724 µM |
| CC(=Nc1ccccc1)C1=C(O)C(Cc2ccc(F)cc2)NC1=O (stereo not given) | > 100 µM | > 100 µM | > 100 µM | > 100 µM | > 100 µM | – | > 100 µM | > 100 µM | > 100 µM | 0.675 µM | 1.81 µM | 0.287 µM | 0.4 µM | 0.435 µM | 0.661 µM | > 100 µM | – | 0.793 µM | 0.825 µM | 5.42 µM |
| Cc1ccc2c(c1)-c1oc(=O)c(-c3cc4ccccc4oc3=O)cc1C(O)O2 (stereo not given) | > 100 µM | > 100 µM | – | 48.3 µM | 40.6 µM | 47 µM | 41.7 µM | 26.6 µM | 37.3 µM | 29.9 µM | 42.2 µM | – | 19.6 µM | 21.4 µM | 10.2 µM | 28.2 µM | 15.6 µM | 21.3 µM | 13.2 µM | 16.7 µM |
| CCOC(=O)C(=O)C(/C(=N/N(C)C)C(=O)Nc1ccc(C)cc1C)c1nc2ccccc2[nH]c1=O (stereo not given) | > 100 µM | > 100 µM | > 100 µM | > 100 µM | > 100 µM | > 100 µM | > 100 µM | > 100 µM | > 100 µM | – | – | – | – | – | – | > 100 µM | – | – | – | – |
| CN(C)C1C(=O)C(C(N)=O)=C(O)C2(O)C(=O)C3=C(O)c4c(O)cccc4C(C)(O)C3CC12 (stereo not given) | > 100 µM | 57.1 µM and > 100 µM | 53.2 µM and > 100 µM | > 100 µM | > 100 µM | – | > 100 µM | – | > 100 µM | – | 22.8 µM and 67.5 µM | 24.5 µM and 82.9 µM | – | 46.1 µM and > 100 µM | – | > 100 µM | – | – | – | 41.9 µM and > 100 µM |
| CCCCCCCCCCCCC(NC(C)=O)(C(=O)OCC)C(=O)OCC | 32.5 µM | 41.6 µM | – | 28.9 µM | 27.3 µM | 23.8 µM | 20.7 µM | 28.5 µM | 27.5 µM | 14.3 µM | 16.8 µM | – | 11.1 µM | 12.7 µM | 12.5 µM | 29.1 µM | 11.3 µM | 5.43 µM | 12.4 µM | 7.39 µM |
| Cc1ccccc1C[P+](c1ccccc1)(c1ccccc1)c1ccccc1 | > 100 µM | > 100 µM | 5.75 µM | 11 µM | – | 16.2 µM | 14.9 µM | > 100 µM | > 100 µM | 3.72 µM | 2.04 µM | 1.58 µM | 0.804 µM | – | 4.72 µM | > 100 µM | 1.21 µM | 0.294 µM | 1.35 µM | 40.5 µM |
| Cc1ccc(-n2c3c(c4c(CN)c(O)ccc42)CCc2ccccc2C3=O)cc1 | 35.8 µM | 8.44 µM | – | 29.1 µM | 18.9 µM | 39.3 µM | 50.1 µM | 32.5 µM | 22.1 µM | 18.7 µM | 2.66 µM | – | 13.2 µM | 5.5 µM | 4.58 µM | 17.9 µM | 18.9 µM | 22.8 µM | 17.2 µM | 8.2 µM |
